Here are results for ten compounds from US8242136B2, “Use of glucosidase inhibitors for therapy of mucovisidosis” (Centre National de la Recherche Scientifique (C.N.R.S.), priority 2003, dated 2012).

“Also recorded” adds a separate entry of the source.

Data set [1] concerns delF508-CFTR. In words: Iodide efflux on CF15 cells: addressing of delF508 after pre-treatment, stimulation with forskolin + genistein. The class given is cell-based, human. The settings on record: CF15 cells treated with 100μM for two hours at 37° C.; Forskolin 10μM + Genistein 30μM; FIG. 7.
Data set [2] deals with delF508-CFTR. The description is as above. The class given is cell-based, human. As for the experimental part: CF15 cells: CF15 cells are human epithelial cells of nasal origin which express the ΔF508-CFTR gene.
The measurements of chloride ion transport in the cells were carried out using the radioactive iodide efflux technique (Becq et al., 1999; Dormer et al., 2001). The tracer (^125I) is incorporated into the intracellular medium. Then, the quantity of radiotracer leaving the cell is counted after the addition of different pharmacological agents. The iodide is used as a tracer of the chloride ion transport. It has been shown that the two radiotracers ^125I and ^36Cl could be considered as equivalents for measuring the activity of a chloride channel (Venglarick et al., 1990). ^125I moreover has the advantage of having a short life compared with that of […] (respective half-lives: 30 days and 300,000 years). The cells are cultured on 24-well plates in an appropriate medium. 2 rinsings with efflux medium (NaCl: 136.6 mM, KCl: 5.4 mM, KH2PO4: 0.3 mM, NaH2PO4: 0.3 mM, NaHCO3: 4.2 mM, CaCl2: 1.3 mM, MgCl2: 0.5 mM, MgSO4: 0.4 mM, HEPES: 10 mM, D-glucose: 5.6 mM) are carried out in order to eliminate the dead cells which release the radioactivity in an anarchic manner. Then, the cells are incubated with 500 μl of charge (1 μCi/ml of ^125INa) for 30 minutes for CHO-WT or 1 hour for CF15 and Calu-3. The iodide is in equilibrium on both sides of the cell membrane. The robot (MultiPROBE, Packard) carries out the following stages: The charge medium is rinsed with efflux medium in order to eliminate the extracellular radioactivity. The supernatant is collected every minute in haemolysis tubes and the medium is replaced by an equivalent volume (500 μl). The samples taken in the first 3 minutes are not subjected to the addition of a drug, they make it possible to obtain a stable base line, characterizing the passive exit of the I^− ions. The following 7 samples are obtained in the presence of the molecule to be tested. At the end of the experiment, the cells are lysed by the addition of 500 μl of NaOH (0.1 N)/0.1% SDS (30 minutes), thus, the radioactivity remaining inside the cell can be determined. The radioactivity present in the haemolysis tubes is counted in counts per minute (cpm) using a gamma counter (Cobra II, Packard). The results in cpm are expressed in the form of exit speed of radioactive iodide (R) according to the following formula: R (min^−1)=[ln(^125I t1)−ln(^125I t2)]/(t1−t2) with ^125I t1: cpm at time t1; ^125I t2: cpm at time t2. This iodide flow is represented in the form of a curve. In order to quantify the exit of iodide due to the administration of the molecule tested, the following relative flow is calculated which makes it possible to be rid of the base flow: Relative speed (min^−1)=Rpeak−Rbasal. […] The results are presented in the form of an average+/−SEM. Student's statistical test is used in order to compare the effects of the drugs with the controls (the values corresponding to P<0.01 are considered statistically significant).
For each experiment, the addition of a cocktail (Forskolin 10 μM, Genistein 30 μM) allows the activation of the CFTR when the latter is on the membrane. […]
The CF15 cells were pre-treated for 2 hours with NB-DNJ (500μM). […] The CFTR activity is measured in iodide efflux (n=8 for each condition) after stimulation by fsk 10μM+Gst 30μM.
The CF15 cells were pre-treated for 2 hours with NB-DNJ at different concentrations. The CFTR activity is measured in iodide efflux (n=4 for each concentration) after stimulation with fsk 10μM+Gst 30μM.

The target in data set [3] is T1, wild-type CFTR (Homo sapiens, UniProt P13569).
T1 construct: Calu-3 cells are human epithelial cells of pulmonary origin which express the wild-type CFTR gene; endogenous in cells; host or cells: Calu-3 human pulmonary epithelial cells
In words: Iodide efflux on Calu-3 cells: compound tested as activator. The conditions noted are these: fsk 5μM, MPB-91 250μM, NB-DNJ 500μM, n=8. The format is cell-based. As for the experimental part: (§1) Calu-3 cells: Calu-3 cells are human epithelial cells of pulmonary origin which express the wild-type CFTR gene.
(§2) The measurements of chloride ion transport in the cells were carried out using the radioactive iodide efflux technique (Becq et al., 1999; Dormer et al., 2001). The tracer (^125I) is incorporated into the intracellular medium. Then, the quantity of radiotracer leaving the cell is counted after the addition of different pharmacological agents. The iodide is used as a tracer of the chloride ion transport. […] 2 rinsings with efflux medium (NaCl: 136.6 mM, KCl: 5.4 mM, KH2PO4: 0.3 mM, NaH2PO4: 0.3 mM, NaHCO3: 4.2 mM, CaCl2: 1.3 mM, MgCl2: 0.5 mM, MgSO4: 0.4 mM, HEPES: 10 mM, D-glucose: 5.6 mM) are carried out in order to eliminate the dead cells which release the radioactivity in an anarchic manner. […] The robot (MultiPROBE, Packard) carries out the following stages: The charge medium is rinsed with efflux medium in order to eliminate the extracellular radioactivity. […] At the end of the experiment, the cells are lysed by the addition of 500 μl of NaOH (0.1 N)/0.1% SDS (30 minutes), thus, the radioactivity remaining inside the cell can be determined. The radioactivity present in the haemolysis tubes is counted in counts per minute (cpm) using a gamma counter (Cobra II, Packard). […]

The test system of data set [4] is wild-type CFTR. In words: Iodide efflux on Calu-3 cells pre-treated for 2 hours: addressing of wild-type CFTR. The class given is cell-based, human. The conditions noted are these: Calu-3 cells pre-incubated 2 hours at 37° C. (NB-DNJ 500μM or MPB-91 250μM), stimulated with 250μM MPB-91. As for the experimental part: as §1, §2
The test system of data set [5] is CHO-WT cells. The experiment in a line: MTT cytotoxicity test on CHO-WT cells. The conditions noted are these: 2 hours; for cytotoxicity (MTT): CHO cells. The class given is cell-based, Chinese Hamster. The procedure:
CHO-WT cells: CHO (Chinese Hamster Ovary) cells are fibroblasts which have been transfected with the wild-type CFTR gene (CFTR-WT). These cells will therefore overexpress the CFTR protein.
The MTT toxicity test is a colorimetric test which is based on the ability of the mitochondrial dehydrogenases to metabolize MTT (yellow tetrazolium salt) to formazan (purple). The absorbance, proportional to the concentration of converted dye, can then be measured by spectrophotometry. The cells are incubated on 96-well plates in the presence of the agent to be tested for 2 hours. 3 controls are carried out: 100% live cells: cells without agent; 0% live cells: cells left in the open air; blank: medium without cells. […] Then they are incubated for 4 hours with 100 μl of RPMI solution supplemented with MTT (0.5 mg/ml). The medium is then eliminated, the addition of 100 μl of DMSO makes it possible to solubilize the converted dye (formazan). The absorbance is measured by spectrophotometry at: 570 nm (purple); 630 nm (background noise). In order to be rid of the background noise, the following calculation is carried out: ODreal=OD570 nm−OD630 nm.
For the purpose of testing the cytotoxicity of NB-DNJ, CHO-WT cells were incubated for 2 hours with different concentrations of inhibitors before being subjected to the cell viability test with MTT.
2 hours of treatment of the cells.

In data set [6] the test system is delF508-CFTR. The experiment in a line: Immunolabelling / cell imaging of delF508 location in CF15 cells. The class given is cell-based, human. The settings on record: CF15 cells after treatment. As for the experimental part: Immunolabelling makes it possible to visualize the cell location of the CFTR protein by means of an anti-CFTR primary antibody (Ab) then a primary anti-antibody secondary antibody labelled with Cy3 fluorophore. The cells are previously seeded on lamellae in appropriate culture medium. 3 washings with TBS (NaCl: 157 mM, Tris base: […], pH 7.4) of 5 minutes each are carried out. The cells are then fixed by the addition of TBS-paraformadehyde (3%) over 20 minutes. After 3 washings with TBS (5 minutes), the cells are incubated with 0.1% TBS-triton (10 minutes) which allows the formation of holes in the cell membrane, then 3 washings with TBS are once again carried out before bringing the cells together with 0.5% TBS-BSA-0.05% saponin for 1 hour. The cells are then incubated with the CFTR anti-C terminal primary antibody (2μg/ml) for 1 hour. 3 washings with TBS-BSA-saponin of 5 minutes each are carried out before incubation with the GAM-cy3 secondary antibody ( 1/400) for 1 hour. Following two 5-minute washings with TBS, the nuclei are labelled by incubation with Topro3 ( 1/1000) for 5 minutes. Finally, the lamellae can be mounted on slides after three last 5-minute washings with TBS. […] In order to differentiate between Cy3 and Topro3 labelling the colour of fluorescence of Topro3 has been changed to blue (colour of the nuclei). […]

In data set [7] the test system is tissues in culture. The settings on record: high concentration (2 mM); cited from earlier work.
For data set [8] the following is noted: patients suffering from acquired immunodeficiency syndrome; cited from earlier work.
Data set [9] relates to delF508. The settings on record: pulmonary epithelial cells; cited from earlier work.
[10] abbreviates: CF15 cells, stimulation Forskolin 10μM + Genistein 30μM.

T1 sequence (P13569 whole entry): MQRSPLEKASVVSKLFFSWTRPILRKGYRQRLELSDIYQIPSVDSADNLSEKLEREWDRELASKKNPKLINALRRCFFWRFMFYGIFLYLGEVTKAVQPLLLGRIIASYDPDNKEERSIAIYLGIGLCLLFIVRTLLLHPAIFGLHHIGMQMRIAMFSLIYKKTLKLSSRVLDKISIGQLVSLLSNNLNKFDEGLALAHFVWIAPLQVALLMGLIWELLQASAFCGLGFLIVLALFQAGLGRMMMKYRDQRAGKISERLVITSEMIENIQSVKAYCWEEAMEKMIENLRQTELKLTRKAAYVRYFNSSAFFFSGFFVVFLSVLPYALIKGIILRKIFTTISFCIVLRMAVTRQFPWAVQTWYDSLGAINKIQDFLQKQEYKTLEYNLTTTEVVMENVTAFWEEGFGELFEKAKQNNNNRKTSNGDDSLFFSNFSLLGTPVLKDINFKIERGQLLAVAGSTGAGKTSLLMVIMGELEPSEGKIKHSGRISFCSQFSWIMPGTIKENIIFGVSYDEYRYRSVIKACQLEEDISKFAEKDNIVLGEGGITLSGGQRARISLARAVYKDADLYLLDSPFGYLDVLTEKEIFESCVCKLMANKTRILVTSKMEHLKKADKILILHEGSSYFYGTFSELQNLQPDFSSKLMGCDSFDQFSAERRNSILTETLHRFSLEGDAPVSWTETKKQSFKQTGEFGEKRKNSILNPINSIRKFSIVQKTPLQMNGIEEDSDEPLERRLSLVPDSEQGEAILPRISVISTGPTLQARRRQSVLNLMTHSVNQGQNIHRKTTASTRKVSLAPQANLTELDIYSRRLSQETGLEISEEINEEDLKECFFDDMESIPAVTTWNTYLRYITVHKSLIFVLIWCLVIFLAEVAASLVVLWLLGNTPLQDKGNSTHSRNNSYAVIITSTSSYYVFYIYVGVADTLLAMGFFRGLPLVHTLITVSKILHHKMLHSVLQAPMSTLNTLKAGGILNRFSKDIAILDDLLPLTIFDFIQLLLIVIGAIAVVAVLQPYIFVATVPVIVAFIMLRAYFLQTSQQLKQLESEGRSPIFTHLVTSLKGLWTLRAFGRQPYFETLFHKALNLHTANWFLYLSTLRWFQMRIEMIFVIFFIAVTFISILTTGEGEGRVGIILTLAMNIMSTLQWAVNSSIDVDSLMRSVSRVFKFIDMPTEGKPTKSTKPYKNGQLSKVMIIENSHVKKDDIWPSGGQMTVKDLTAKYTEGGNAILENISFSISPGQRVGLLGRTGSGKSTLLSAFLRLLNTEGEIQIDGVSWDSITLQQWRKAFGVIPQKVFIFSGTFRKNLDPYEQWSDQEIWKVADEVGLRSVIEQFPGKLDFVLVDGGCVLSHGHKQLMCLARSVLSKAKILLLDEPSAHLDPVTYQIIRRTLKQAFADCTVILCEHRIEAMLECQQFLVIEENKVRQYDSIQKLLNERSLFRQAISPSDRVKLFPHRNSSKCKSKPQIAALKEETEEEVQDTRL

As for `OC[C@H]1NC[C@H](O)[C@@H](O)[C@H]1O` [DGJ], in data set [1], the “addressing of delF508 and function as ion transporter (iodide efflux)” value (“addressing of delF508 and function” for short) was “no significant effect”.
As usually defined, the EC50 is the concentration giving half of the maximal effect. As for `OC[C@H]1NC[C@H](O)[C@@H](O)[C@@H]1O` [DNJ], the EC50 in [2] (setting [10]) was over 250 µM. Besides, the “addressing of delF508 and function” value in [1] is “restores an addressing of the delF508 protein and allows the latter to function as an ion transporter”.
For `CCCCN1C[C@@H](O)[C@H](O)[C@H](O)[C@@H]1C` [nB-DFJ], the “addressing of delF508 and function” value in [1] is listed as “no significant effect”.
Take `CCCCc1c(O)c2cccc(Cl)c2[n+]2ccccc12` [MPB-91]: the “activation of iodide efflux (CFTR activity / anionic transports)” value in [3] is on record as “activate an iodide efflux”. Also, in [4], the “CFTR activity (iodide efflux) after 2 hours pre-treatment” value is listed as “not significantly different”.
In the case of `C[C@@H]1NC[C@@H](O)[C@H](O)[C@@H]1O` [DFJ], the “addressing of delF508 and function” value in data set [1] is on record as “no significant effect”.
As for `CCCCN1C[C@H](O)[C@@H](O)[C@H](O)[C@H]1CO` [NB-DNJ, N-butyl-deoxynojirimycin], the “addressing of delF508 and function” value in data set [2] (CF15 cells pre-treated 2 hours at 37° C. with 500μM, stimulation fsk 10μM + Gst 30μM, MPB-91 250μM = 100%) was “restores addressing of the delF508 protein and allows the latter to function as an ion transporter”. The half-maximal effective concentration (EC50) in [2] (CF15 cells pre-treated 2 hours, stimulation fsk 10μM + Gst 30μM, FIG. 2) was 123 µM. The “activation of iodide efflux (CFTR activity / anionic transports)” value in [3] is on record as “is not an activator of the wild-type CFTR nor of other anionic transports of these cells; also recorded: has no effect”. Besides, in data set [4], the “CFTR activity (iodide efflux) after 2 hours pre-treatment” value is given as “the level of CFTR activity is not affected”. For the same compound, the “cytotoxicity (MTT)” value in [5] (5μM) is on record as “no cytotoxicity is measurable”; in [5] (50μM), “no cytotoxicity is measurable”; in data set [5] (500μM) it was “A low toxicity appears”. In addition, the “cell viability / cytotoxicity (MTT)” value in data set [5] (CHO-WT cells, all concentrations) is recorded as “exhibits no cell cytotoxicity”. Further, the “location of delF508 protein by cell imaging” value in data set [6] is on record as “located the delF508 protein in the plasmatic membrane compartments”. In data set [7], the “cytotoxicity on tissues in culture” value is reported as “is not cytotoxic”. For the same compound, the tolerability in patients result in data set [8] was “well tolerated”.
As to `OCC1NCC(O)C(O)C1O` (stereo not drawn) [DMJ], the EC50 in data set [2] (setting [10]) worked out at 134 µM. Besides, the “addressing of delF508 and function” value in [1] was “restores an addressing of the delF508 protein and allows the latter to function as an ion transporter”.
With `O[C@H]1[C@H](O)[C@@H](O)CN2CC[C@H](O)[C@H]12` [castanospermine], in data set [9], the “presence of delF508 at the surface of cells” value was “had an effect on the renewal of the presence of delF508 at the surface of pulmonary epithelial cells”.
`CCCCN1C[C@@H](O)[C@@H](O)[C@H](O)[C@H]1CO` [nB-DMJ]: the concentration for a half-maximal effect (EC50) in data set [2] (setting [10]) worked out at 113 µM. In data set [1], the “addressing of delF508 and function” value is “restores an addressing of the delF508 protein and allows the latter to function as an ion transporter”.
As to `CCCCN1C[C@H](O)[C@@H](O)[C@@H](O)[C@H]1CO` [nB-DGJ], the “addressing of delF508 and function” value in [1] is listed as “no significant effect”.
